Read-outs that look alike come from different tables or passages of the source.
Key:
mushroom tyrosinase [1] = assay: Mushroom tyrosinase inhibition assay (dopachrome, 475 nm); assay type: biochemical; conditions: for IC50: mushroom tyrosinase
Procedure: The ability of the BMTTZD analogs to inhibit mushroom tyrosinase was evaluated in the presence of L-dopa and L-tyrosine as previously described.

mushroom tyrosinase [2] = target: mushroom tyrosinase (Agaricus bisporus, UniProt C7FF04); assay: Kinetic study of mushroom tyrosinase inhibition (Lineweaver–Burk and Dixon plots); assay type: biochemical; conditions: for type of tyrosinase inhibition (Lineweaver–Burk plots): substrate L-dopa 0.5–16 mM
Sequence of mushroom tyrosinase (Agaricus bisporus, UniProt C7FF04) (C7FF04 1-392): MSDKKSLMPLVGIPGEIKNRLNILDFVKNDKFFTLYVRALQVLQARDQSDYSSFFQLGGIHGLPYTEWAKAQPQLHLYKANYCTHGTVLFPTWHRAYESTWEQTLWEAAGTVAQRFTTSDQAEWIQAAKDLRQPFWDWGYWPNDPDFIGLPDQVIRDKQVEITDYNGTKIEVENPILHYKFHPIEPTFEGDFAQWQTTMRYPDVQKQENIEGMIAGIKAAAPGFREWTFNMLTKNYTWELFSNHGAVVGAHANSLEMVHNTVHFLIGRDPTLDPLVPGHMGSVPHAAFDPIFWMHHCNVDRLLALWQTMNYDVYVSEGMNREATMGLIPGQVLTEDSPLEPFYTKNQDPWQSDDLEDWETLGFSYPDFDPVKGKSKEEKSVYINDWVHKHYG
Procedure: The initial rate of dopachrome generation was examined at various BMTTZD analog concentrations (0, 1.5, 3, and 6 µM for analog 1; 0, 2, 4, and 8 µM for analogs 2 and 5; and 0, 0.05, 0.1, and 0.2 µM for 3) with 0.5, 1, 2, 4, 8, or 16 mM L-dopa as substrates using mushroom tyrosinase. Plotting the reciprocal of the dopachrome formation rate against the inverse of the L-dopa concentration produced Lineweaver–Burk plots (Figure 2). Each Lineweaver–Burk plot created four straight lines with different slopes. For analogs 1 and 3, the four straight lines met at a point on the y-axis, whereas for analogs 2 and 5, the four straight lines converged at a point in the second quadrant.
The Dixon plots produced lines that met in the second quadrant. The x-coordinate of the convergence position represents the inhibition constant (Ki) of the ligand.
Lineweaver–Burk (L-B) plots were acquired for the kinetic analysis of analogs against mushroom tyrosinase as previously described. In brief, 10 µL of a solution of DMSO and BMTTZD analogs 1–3 or 5 (final concentrations: 0, 1.5, 3, and 6 µM for analog 1; 0, 2, 4, and 8 µM for analogs 2 and 5; and 0, 0.05, 0.1, and 0.2 µM for analog 3) in each well of a 96-well plate was mixed with 20 µL of aqueous mushroom tyrosinase solution (200 units/mL) and 170 µL of an aqueous substrate mixture (various concentrations of L-dopa (final concentrations: 16, 8, 4, 2, 1 and 0.5 mM) and 17.2 mM sodium phosphate buffer (pH 6.5)). During incubation (15 min at 37 °C), the increase in the well absorbance (ΔOD475/min) was calculated at 1 min intervals utilizing a VersaMax® reader.

B16F10 cells [3] = assay: Cell cytotoxicity test (EZ-Cytox); assay type: cell-based, murine; conditions: 2.5–20 µM, 48 and 72 h
Procedure: Because analogs 1–3 and 5 exerted potent mushroom tyrosinase inhibitory activities, their effects on anti-melanogenic and cellular tyrosinase activities were evaluated in B16F10 murine cells. Prior to examining their cellular activity, their cell viabilities were investigated. Cell viability was evaluated at 48 and 72 h after treatment with five different concentrations of analogs.
The effect on B16F10 cytotoxicity was assessed following a previously described method. Cells (1 × 10^4 cells/well of a 96-well plate) were cultivated for 24 h with 5% CO2 at 37 °C. The cells were exposed to the BMTTZD analogs (test concentrations: 20, 10, 5, 2.5, and 0 µM) and cultivated with 5% CO2 at 37 °C for 72 h. An EZ-Cytox solution (10 µL; EZ-500, DoGenBio, Seoul, Republic of Korea) was exposed to each well, and the plate was cultivated for 2 h. Cell viability was calculated from the well absorbance measured at 450 nm utilizing a reader (VersaMax®).

[4] = target: T1, B16F10 cellular tyrosinase (Mus musculus, UniProt P11344); assay: Cellular tyrosinase activity assay in B16F10 cells stimulated with IBMX plus α-MSH; assay type: cell-based, murine; conditions: 72 h; for effect on stimulator-induced cellular tyrosinase activity: 5, 10, 20 µM, IBMX plus α-MSH
T1 construct: host or cells: B16F10 cells
T1 sequence (P11344 19-533): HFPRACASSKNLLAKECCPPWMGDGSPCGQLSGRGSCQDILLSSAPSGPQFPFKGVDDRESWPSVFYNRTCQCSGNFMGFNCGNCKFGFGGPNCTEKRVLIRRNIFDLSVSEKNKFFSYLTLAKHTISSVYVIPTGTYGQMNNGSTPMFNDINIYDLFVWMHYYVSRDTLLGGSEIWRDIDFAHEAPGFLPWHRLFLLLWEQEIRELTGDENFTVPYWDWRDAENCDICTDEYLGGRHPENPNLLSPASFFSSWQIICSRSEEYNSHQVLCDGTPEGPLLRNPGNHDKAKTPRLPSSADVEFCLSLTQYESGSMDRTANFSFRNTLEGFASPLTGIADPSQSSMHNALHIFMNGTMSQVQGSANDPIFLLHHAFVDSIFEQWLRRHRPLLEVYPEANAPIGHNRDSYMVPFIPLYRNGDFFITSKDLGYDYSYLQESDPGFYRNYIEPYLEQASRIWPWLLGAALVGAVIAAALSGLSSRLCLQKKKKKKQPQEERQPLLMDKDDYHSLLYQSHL
Procedure: Analogs 1, 3, and 5 were exposed to B16F10 cells at various concentrations (20, 10, 5, and 0 µM) before exposure to IBMX (200 µM; 3-isobutyl-1-methylxanthine) and α-MSH (1 µM; α-melanocyte-stimulating hormone). After incubation (72 h), B16F10 cellular tyrosinase activity was determined. […] It was examined whether the cellular tyrosinase inhibition of the BMTTZD analogs could influence B16F10 cellular melanin contents.
Effects on B16F10 tyrosinase inhibition were evaluated as previously described. A 6-well plate containing 1 × 10^5 B16F10 cells/well was cultivated for 23 h under conditions identical to those of the cell culture. […] The cells were cultivated for 72 h. After washing 2 times with PBS, the cells were lysed in a 100 µL lysis buffer, including phenylmethylsulfonyl fluoride (5 µL; 1 mM), Triton X-100 (5 µL; 1%), and phosphate buffer (90 µL; 50 mM (pH 6.5)). After 30 min incubation at −80 °C, the cell lysates were centrifuged at 4 °C for 30 min. The supernatants (80 µL) of the lysates were moved to each well of a microplate and mixed with 20 µL 10 mM L-dopa.

B16F10 cells [5] = assay: Melanin content assay in B16F10 cells; assay type: cell-based, murine; conditions: 72 h; for effect on intracellular melanin contents enhanced by IBMX plus α-MSH: 5, 10, 20 µM
Procedure: We examined whether the ability of analogs 1, 3, and 5 to inhibit intracellular tyrosinase activity could affect intracellular melanin levels. B16F10 cells were utilized as mammalian cells. IBMX and α-MSH were used at 200 µM and 1 µM, respectively, to increase melanin biosynthesis. […] For the intracellular melanin content determination, the absorbance at 405 nm was evaluated after 72 h of incubation.
The effect of BMTTZD analogs on melanin biosynthesis was investigated following a previously described method. A 6-well microplate containing 1 × 10^5 B16F10 cells/well was cultivated for 23 h under conditions identical to those of the cell culture. […] After exposure to IBMX and α-MSH, B16F10 cells were cultivated for 72 h at 37 °C. The cells were rinsed 2 times with PBS, treated with 1N-NaOH aqueous solution (100 µL), and cultivated at 60 °C for 1 h. The lysates were moved to a microplate. At 405 nm, the well absorbance was measured utilizing a VersaMax® reader. Each experiment was carried out three times independently.

[6] = target: T1, B16F10 cellular tyrosinase; assay: In situ cellular tyrosinase activity assay using L-dopa staining; assay type: cell-based, murine; conditions: 72 h; for effect on stimulator-raised in situ intracellular tyrosinase activity (L-dopa staining): analogs 5, 10, 20 µM, kojic acid 20 µM
Procedure: Because tyrosinase plays a critical role in melanogenesis, in situ intracellular tyrosinase activity was measured. The in situ intracellular tyrosinase activity was evaluated in B16F10 cells following a previously reported procedure. Stimulators (α-MSH plus IBMX) were exposed to cells to raise tyrosinase activity levels, and analogs 1, 3, and 5 were treated at 20, 10, and 5 µM for 72 h. After fixation and permeabilization using paraformaldehyde and Triton X-100, the cells were stained with L-dopa.
A 24-well plate containing 1 × 10^3 B16F10 cells/well was cultivated for 24 h under conditions identical to those of the cell culture. […] The cells were then cultivated under conditions identical to those of the cell culture for 72 h. Cultivated cells were fixed for 40 min with paraformaldehyde (4%), washed 2 times with PBS, and permeabilized with Triton X-100 (0.1%) for 2 min. After washing 2 times with PBS, the cells in the 24-well plate were stained with a 2 mM L-dopa aqueous solution (500 µL/well) for 2 h at 37 °C. Staining was photographed and analyzed utilizing a camera connected to a microscope (Motic, Hong Kong).

[7] = DPPH radical scavenging activity assay; conditions: 500 µM
Procedure: First, the ability of BMTTZD analogs 1–8 to scavenge DPPH radicals was examined using L-ascorbic acid (vitamin C; positive control). All samples were tested at 500 µM.
The ability of the BMTTZD analogs to scavenge DPPH radicals was evaluated as previously reported. To each well of a 96-well plate containing analogs 1–8 (5 mM in […]; 20 µL) was added a DPPH solution (0.2 mM in methanol; 180 µL). The mixture was kept in a place without light for 30 min at 25°C to generate DPPH radicals. The well absorbance at 517 nm was measured utilizing a VersaMax® reader. The ability of the analogs to remove DPPH radicals was compared to that of vitamin C.

[8] = substrate L-dopa, read-out: IC50 (Mean ± SEM, µM) L-Dopa
[9] = substrate L-tyrosine, read-out: IC50 (Mean ± SEM, µM) L-Tyrosine
[10] = analog at highest concentration tested (20 µM)

## CN1C(=O)/C(=C/c2ccc(O)cc2)SC1=S [Analog 1, (Z)-5-(4-Hydroxybenzylidene)-3-methyl-2-thioxothiazolidin-4-one]
Mushroom tyrosinase [1]; substrate L-dopa
  reduction in tyrosinase inhibition relative to analog 3: 17 fold
Mushroom tyrosinase [1]; [8]
  IC50: 17.6 ± 0.62 µM
Mushroom tyrosinase [1]; substrate L-tyrosine
  tyrosinase inhibition, times stronger than kojic acid: five times more strongly than kojic acid
Mushroom tyrosinase [1]; [9]
  IC50: 3.82 ± 0.22 µM
Mushroom tyrosinase [2]
  type of tyrosinase inhibition (Lineweaver–Burk plots): competitive inhibitors
Mushroom tyrosinase [2]; substrate L-dopa, read-out: inhibition constant (Ki) from Dixon plots
  Ki: 6.2 µM
B16F10 cells [3]
  cytotoxicity (cell viability): did not exhibit cytotoxicity at ≤20 µM
[4]
  effect on stimulator-induced cellular tyrosinase activity: concentration-dependently and significantly reduced
[4]; analog at 10 µM
  cellular tyrosinase inhibition compared with kojic acid (20 µM): slightly more strongly than kojic acid
[4]; [10]
  cellular tyrosinase inhibition compared with kojic acid (20 µM): stronger inhibitory effects than kojic acid
B16F10 cells [5]; 20 µM
  intracellular melanin contents compared with kojic acid: levels similar to those in treatment with kojic acid
B16F10 cells [5]
  effect on intracellular melanin contents enhanced by IBMX plus α-MSH: significantly reduced the melanin contents
[6]; 20 µM
  in situ intracellular tyrosinase inhibition compared with kojic acid: weaker intracellular tyrosinase inhibition efficacy than kojic acid
[6]
  effect on stimulator-raised in situ intracellular tyrosinase activity (L-dopa staining): concentration-dependently reduced the stimulator-enhanced intracellular tyrosinase inhibition

## COc1cc(/C=C2\SC(=S)N(C)C2=O)ccc1O [Analog 4, (Z)-5-(4-Hydroxy-3-methoxybenzylidene)-3-methyl-2-thioxothiazolidin-4-one]
Mushroom tyrosinase [1]; [8]
  IC50: > 200 µM
Mushroom tyrosinase [1]; [9]
  IC50: 54.8 ± 16.1 µM
[7]
  DPPH radical scavenging activity: 82%

## COc1ccc(/C=C2\SC(=S)N(C)C2=O)cc1O [Analog 5, (Z)-5-(3-Hydroxy-4-methoxybenzylidene)-3-methyl-2-thioxothiazolidin-4-one]
Mushroom tyrosinase [1]; [8]
  IC50: 13.8 ± 2.64 µM
Mushroom tyrosinase [1]; [9]
  IC50: 3.6 ± 0.52 µM
Mushroom tyrosinase [2]
  type of tyrosinase inhibition (Lineweaver–Burk plots): mixed-type inhibitors
B16F10 cells [3]
  cytotoxicity (cell viability): did not exhibit cytotoxicity at ≤20 µM
[4]
  effect on stimulator-induced cellular tyrosinase activity: concentration-dependently and significantly reduced
[4]; [10]
  cellular tyrosinase inhibition compared with kojic acid (20 µM): stronger inhibitory effects than kojic acid
B16F10 cells [5]; 20 µM
  intracellular melanin contents compared with kojic acid: levels similar to those in treatment with kojic acid
B16F10 cells [5]
  effect on intracellular melanin contents enhanced by IBMX plus α-MSH: significantly reduced the melanin contents
[6]
  effect on stimulator-raised in situ intracellular tyrosinase activity (L-dopa staining): concentration-dependently reduced the stimulator-enhanced intracellular tyrosinase inhibition

## COc1cc(/C=C2\SC(=S)N(C)C2=O)cc(OC)c1O [Analog 6, (Z)-5-(4-Hydroxy-3,5-dimethoxybenzylidene)-3-methyl-2-thioxothiazolidin-4-one]
Mushroom tyrosinase [1]; [8]
  IC50: > 200 µM
Mushroom tyrosinase [1]; [9]
  IC50: 57.4 ± 10.9 µM

## CN1C(=O)/C(=C/c2ccc(O)c(Br)c2)SC1=S [Analog 7, (Z)-5-(3-Bromo-4-hydroxybenzylidene)-3-methyl-2-thioxothiazolidin-4-one]
Mushroom tyrosinase [1]; [8]
  IC50: > 200 µM
Mushroom tyrosinase [1]; [9]
  IC50: 33.2 ± 8.42 µM

## CN1C(=O)/C(=C/c2cc(Br)c(O)c(Br)c2)SC1=S [Analog 8, (Z)-5-(3,5-Dibromo-4-hydroxybenzylidene)-3-methyl-2-thioxothiazolidin-4-one]
Mushroom tyrosinase [1]; [8]
  IC50: > 200 µM
Mushroom tyrosinase [1]; [9]
  IC50: > 200 µM

## O=c1cc(CO)occ1O [Kojic acid, reference compound]
B16F10 cells [5]; 20 µM, IBMX plus α-MSH (raised melanin 4.4-fold)
  decrease of intracellular melanin contents: 3.3 fold

## O=C1O[C@H]([C@@H](O)CO)C(O)=C1O [L-Ascorbic acid, reference compound]
[7]
  DPPH radical scavenging activity: 97%
